In patent US20230210829A1, “REJUVENATION OF AGED TISSUES BY INHIBITION OF THE PGE2 DEGRADING ENZYME, 15-PGDH” (The Board of Trustees of the Leland Stanford Junior …, priority 2020, published 2023):

Key:
aged mice [1] = assay: Hematoxylin and Eosin (H&E) histological evaluation of spleen in aged mice treated with 15-PGDH inhibitor; type: in vivo; conditions: aged (25 months) mice, intraperitoneally for 4 weeks, H&E staining
Method: FIG. 3. […] Hematoxylin and Eosin (H&E) staining of spleen in young vehicle treated (4 months), aged vehicle treated (25 months) and aged SW033291 treated (25 months) intraperitoneally for 4 weeks.
(§1) All experiments and protocols were performed in compliance with the institutional guidelines of Stanford University and Administrative Panel on Laboratory Animal Care (APLAC). Aged (>24 mo.) mice C57BL/6 were obtained from the US National Institute on Aging (NIA) for aged muscle studies, and young (2-4 mo.) wild-type C57BL/6 mice from Jackson Laboratory.

aged mice [2] = assay: Luminex assay of mouse sera (serum cytokine levels) in aged mice treated with 15-PGDH inhibitor; type: in vivo; conditions: aged (25 months) mice, 4 weeks intraperitoneal administration
Text: FIGS. 4A-4H. Inhibition of 15-PGDH rejuvenates systemic cytokine levels. Serum levels of (FIG. 4A) interleukin-10 (IL10), (FIG. 4B) interleukin-6 (IL6), (FIG. 4C) betacellulin (BTC), (FIG. 4D) granulocyte-macrophage colony-stimulating factor (GM-CSF), (FIG. 4E) interleukin-13 (IL13), (FIG. 4F) tumor necrosis factor-alpha (TNFA), (FIG. 4G) interleukin-1 beta (IL1B), and (FIG. 4H) interleukin-22 (IL22) measured in young vehicle (4 months), young SW033291 (4 months), aged vehicle treated (25 months), and aged SW033291 treated (25 months) mice by Luminex bead arrays. MFI—Mean fluorescence intensity.
as §1
Aging is associated with an altered state of inflammation and is associated with changes in circulating levels of various cytokines. Altered cytokine signaling in aging can initiate a cascade of dysregulated signaling pathways that negatively impact the function of various organs. Age-dysregulated cytokine signaling has been implicated in increased mortality, frailty, cellular senescence, vascular aging, cognitive decline, atherosclerosis, risk of osteoarthritis, and loss of bone mineral density in aging. […] Furthermore, a reduction of IL6 is associated with reduced adipose tissue inflammation and reduced cellular senescence. […] Increased IL22 levels are anti-inflammatory in colonic tissue and are beneficial for inflammatory bowel disease and colitis. […] This systemic effect in turn ameliorates the function of other tissues.

## CCCC[S+]([O-])c1sc2nc(-c3cccs3)cc(-c3ccccc3)c2c1N (stereo not drawn) [SW033291, 2-(butylsulfinyl)-4-phenyl-6-(thiophen-2-yl)thieno[2,3-b]pyridin-3-amine]
Aged mice [1]
  cell density within the splenic follicles: increased cell density within the follicles
  follicular structure of spleen: restored
  marginal zone of spleen: reestablished
Aged mice [1]; vs aged vehicle and young
  splenic morphology: rejuvenated the splenic morphology
Aged mice [2]; FIG. 4A
  serum level of interleukin-10 (IL10): restored to levels similar to those of young mice
Aged mice [2]; FIG. 4B
  serum level of interleukin-6 (IL6): restored to levels similar to those of young mice
Aged mice [2]; FIG. 4C
  serum level of betacellulin (BTC): restored to levels similar to those of young mice
Aged mice [2]; FIG. 4D
  serum level of granulocyte-macrophage colony-stimulating factor (GM-CSF): restored to levels similar to those of young mice
Aged mice [2]; FIG. 4E
  serum level of interleukin-13 (IL13): restored to levels similar to those of young mice
Aged mice [2]; FIG. 4F
  serum level of tumor necrosis factor-alpha (TNFA): further increased
Aged mice [2]; FIG. 4G
  serum level of interleukin-1 beta (IL1B): further increased
Aged mice [2]; FIG. 4H
  serum level of interleukin-22 (IL22): further increased
